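In this assay, cells in 96-well plates receive the compound at five concentrations for 48 hours. Endpoints are linearly interpolated between the surrounding concentrations. At the GI50, growth is halved.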 The source made the active and inactive calls. Cut-off read from the data, not from the text of the source: active = GI50 up to about 1.1 µM and inactive = higher.
What was measured:
Assay in all cases: DTP human tumour cell line panel, 48 h
[1] = system: SNB-75
[2] = system: HL-60
[3] = system: 786-0
[4] = system: KM12
[5] = system: ACHN
[6] = system: RXF 393
[7] = system: SN12C
[8] = system: SF-539
[9] = system: MOLT-4
[10] = system: K562
[11] = system: UACC-257
[12] = system: UACC-62
[13] = system: SK-MEL-5
[14] = system: SNB-19
[15] = system: HOP-92
[16] = system: NCI-H460
[17] = system: U-251
[18] = system: A498

| Compound | GI50 [1] | GI50 [2] | GI50 [3] | GI50 [4] | GI50 [5] | GI50 [6] | GI50 [7] | GI50 [8] | GI50 [9] | GI50 [10] | GI50 [11] | GI50 [12] | GI50 [13] | GI50 [14] | GI50 [15] | GI50 [16] | GI50 [17] | GI50 [18] |
| --- | --- | --- | --- | --- | --- | --- | --- | --- | --- | --- | --- | --- | --- | --- | --- | --- | --- | --- |
| O=C1c2ccccc2-c2cccc3ccc(Cc4ccc5ccccc5c4)c1c23 | 26.4 µM (inactive) | > 100 µM (inactive) | 76.6 µM (inactive) | > 100 µM (inactive) | > 100 µM (inactive) | 48.2 µM (inactive) | > 100 µM (inactive) | > 100 µM (inactive) | > 100 µM (inactive) | 29.4 µM (inactive) | > 100 µM (inactive) | > 100 µM (inactive) | > 100 µM (inactive) | > 100 µM (inactive) | 49.4 µM (inactive) | > 100 µM (inactive) | 98.2 µM (inactive) |  |
| N/N=c1\c2ccccc2c2ccc3c4ccccc4/c(=N\N)c3c12 | 37.3 µM (inactive) | > 100 µM (inactive) | > 100 µM (inactive) | > 100 µM (inactive) | > 100 µM (inactive) | > 100 µM (inactive) | > 100 µM (inactive) | > 100 µM (inactive) | > 100 µM (inactive) | > 100 µM (inactive) | > 100 µM (inactive) | > 100 µM (inactive) | > 100 µM (inactive) | > 100 µM (inactive) | > 100 µM (inactive) | > 100 µM (inactive) | > 100 µM (inactive) |  |
| CCn1cnnc1-c1nsc2ccccc12 | 0.369 µM (active) | > 100 µM (inactive) |  | > 100 µM (inactive) | > 100 µM (inactive) | 23.2 µM (inactive) | > 100 µM (inactive) | > 100 µM (inactive) | > 10 µM (inactive) | 68.1 µM (inactive) | > 100 µM (inactive) | > 100 µM (inactive) | 83.8 µM (inactive) | > 100 µM (inactive) | 45.3 µM (inactive) | > 100 µM (inactive) | > 100 µM (inactive) |  |
| S=P1(Oc2ccccc2)NNP2(=NP(N3CC3)(N3CC3)=NP(N3CC3)(N3CC3)=N2)NN1 (configuration not stated) | 64.4 µM (inactive) | 30.4 µM (inactive) | > 100 µM (inactive) | > 100 µM (inactive) | > 100 µM (inactive) |  | 84.1 µM (inactive) | > 100 µM (inactive) | 19.6 µM (inactive) | > 100 µM (inactive) | > 100 µM (inactive) | 98.4 µM (inactive) | > 100 µM (inactive) | > 100 µM (inactive) |  | 37.6 µM (inactive) | > 100 µM (inactive) | > 100 µM (inactive) |
| COc1ccc(C2C(Cl)C(=O)N2NC(=O)c2ccc(NC(C)=O)cc2)cc1OC (configuration not stated) | > 100 µM (inactive) | > 100 µM (inactive) |  | > 100 µM (inactive) | > 100 µM (inactive) |  |  | > 100 µM (inactive) | > 100 µM (inactive) | > 100 µM (inactive) | > 100 µM (inactive) | > 100 µM (inactive) | > 100 µM (inactive) | > 100 µM (inactive) | > 100 µM (inactive) | > 100 µM (inactive) | > 100 µM (inactive) |  |
| Nc1c(-c2ccccc2[N+](=O)[O-])nc2ccccn12 |  | > 100 µM (inactive) |  | > 100 µM (inactive) | > 100 µM (inactive) | > 100 µM (inactive) | > 100 µM (inactive) |  | > 100 µM (inactive) | > 100 µM (inactive) | > 100 µM (inactive) | > 100 µM (inactive) | > 100 µM (inactive) |  | > 100 µM (inactive) | > 100 µM (inactive) | > 100 µM (inactive) |  |
| CN(C)c1ccc(C=C2C(=O)OC(C)(C)OC2=O)cc1Br | 29.5 µM (inactive) | 41.1 µM (inactive) | > 100 µM (inactive) | > 100 µM (inactive) | > 100 µM (inactive) | > 100 µM (inactive) | > 100 µM (inactive) | > 100 µM (inactive) | > 100 µM (inactive) | 82.6 µM (inactive) | > 100 µM (inactive) | > 100 µM (inactive) | > 100 µM (inactive) | > 100 µM (inactive) | 29.4 µM (inactive) | > 100 µM (inactive) | > 100 µM (inactive) |  |
| O=c1n(Cc2ccccc2)c2ccccc2n1CC1CS1 (configuration not stated) | 58.6 µM (inactive) | > 100 µM (inactive) |  | > 100 µM (inactive) | > 100 µM (inactive) |  | > 100 µM (inactive) | > 100 µM (inactive) | > 100 µM (inactive) | > 100 µM (inactive) |  | > 100 µM (inactive) |  | > 100 µM (inactive) | > 100 µM (inactive) |  |  |  |
| CC(=O)Nc1ccc(C(=O)N2N=C(C)/C(=C/c3cccc(O)c3)C2=O)cc1 | > 100 µM (inactive) |  | > 100 µM (inactive) |  | > 100 µM (inactive) |  | > 100 µM (inactive) | > 100 µM (inactive) | > 100 µM (inactive) | > 100 µM (inactive) | > 100 µM (inactive) |  | > 100 µM (inactive) | > 100 µM (inactive) |  | > 100 µM (inactive) | > 100 µM (inactive) |  |
| CC(C)(C1=NC(C(C)(C)C)CO1)C1=N[C@@H](C(C)(C)C)CO1 (some centres not stated) | > 100 µM (inactive) | > 100 µM (inactive) | > 100 µM (inactive) | > 100 µM (inactive) | > 100 µM (inactive) | > 100 µM (inactive) | > 100 µM (inactive) | > 100 µM (inactive) | > 100 µM (inactive) | > 100 µM (inactive) | > 100 µM (inactive) | > 100 µM (inactive) | > 100 µM (inactive) | > 100 µM (inactive) | > 100 µM (inactive) | > 100 µM (inactive) | > 100 µM (inactive) |  |
| O=C1NCCCC12CCCNC2=O |  | > 100 µM (inactive) | > 100 µM (inactive) | > 100 µM (inactive) | > 100 µM (inactive) | > 100 µM (inactive) | > 100 µM (inactive) | > 100 µM (inactive) | > 100 µM (inactive) | > 100 µM (inactive) | > 100 µM (inactive) |  | > 100 µM (inactive) | > 100 µM (inactive) |  | > 100 µM (inactive) | > 100 µM (inactive) |  |
| CC(=O)OCc1nnn2c1C(OC(C)=O)CC2 (configuration not stated) | 20.1 µM (inactive) |  | > 100 µM (inactive) | > 100 µM (inactive) | > 100 µM (inactive) | > 100 µM (inactive) | > 100 µM (inactive) | > 100 µM (inactive) | > 100 µM (inactive) | > 100 µM (inactive) | > 100 µM (inactive) | > 100 µM (inactive) | > 100 µM (inactive) | > 100 µM (inactive) | > 100 µM (inactive) | > 100 µM (inactive) | > 100 µM (inactive) |  |
| O/N=C/c1ncccc1C1OCCO1 | > 100 µM (inactive) | > 100 µM (inactive) | > 100 µM (inactive) | > 100 µM (inactive) | > 100 µM (inactive) | > 100 µM (inactive) | > 100 µM (inactive) | > 100 µM (inactive) | > 100 µM (inactive) | > 100 µM (inactive) | > 100 µM (inactive) | > 100 µM (inactive) | > 100 µM (inactive) | > 100 µM (inactive) | > 100 µM (inactive) | > 100 µM (inactive) | > 100 µM (inactive) |  |

From ChEMBL document CHEMBL1201862, “PubChem BioAssay data set” (2004)
